Assays:
Format in all cases: functional, cell-based
HeLa [1] = test: Cytotoxicity against human HeLa cells after 48 hrs by MTS assay
HeLa [2] = test: Cytotoxicity against human HeLa cells by MTS assay; conditions: TDE = time-dependent effect
HeLa [3] = test: Cytotoxicity against human HeLa cells after 24 hrs by MTS assay

Structure (SMILES) | IC50 (HeLa [1]) | Activity (HeLa [2]) | IC50 (HeLa [3])
COc1cc(/C=C/C(=O)OC[C@H]2O[C@H](O[C@]3(CO)O[C@H](COC(=O)/C=C/c4ccc(OC(C)=O)cc4)[C@@H](O)[C@@H]3OC(=O)/C=C/c3ccc(OC(C)=O)cc3)[C@H](O)[C@@H](OC(=O)/C=C/c3ccc(OC(C)=O)c(OC)c3)[C@@H]2O)ccc1OC(C)=O | 3.14 µM | – | –
COc1cc(/C=C/C(=O)OC[C@H]2O[C@]3(COC(C)(C)O[C@H]4[C@H](O[C@@H]5COC(C)(C)O[C@H]5[C@@H]4O)O3)[C@@H](O)[C@@H]2O)ccc1OC(C)=O | > 100 µM | – | –
COc1cc(/C=C/C(=O)OC[C@H]2O[C@@](CO)(O[C@H]3O[C@H](CO)[C@@H](O)[C@H](O)[C@H]3O)[C@@H](OC(=O)/C=C/c3ccc(OC(C)=O)c(OC)c3)[C@@H]2OC(=O)/C=C/c2ccc(OC(C)=O)c(OC)c2)ccc1OC(C)=O | 1.7 µM | – | –
COc1cc(/C=C/C(=O)OC[C@H]2O[C@H](O[C@]3(CO)O[C@H](COC(=O)/C=C/c4ccc(O)cc4)[C@@H](O)[C@@H]3OC(=O)/C=C/c3ccc(O)cc3)[C@H](O)[C@@H](O)[C@@H]2O)ccc1O [LAPATHOSIDE C] | 12.6 µM | – | –
COc1cc(/C=C/C(=O)OC[C@H]2O[C@H](O[C@]3(CO)O[C@H](COC(=O)/C=C/c4ccc(O)cc4)[C@@H](O)[C@@H]3OC(=O)/C=C/c3ccc(O)cc3)[C@H](O)[C@@H](OC(=O)/C=C/c3ccc(O)c(OC)c3)[C@@H]2O)ccc1O | 1.67 µM | – | –
O=C(/C=C/c1ccc(O)cc1)OC[C@H]1O[C@@](CO)(O[C@H]2O[C@H](COC(=O)/C=C/c3ccc(O)cc3)[C@@H](O)[C@H](OC(=O)/C=C/c3ccc(O)cc3)[C@H]2O)[C@@H](OC(=O)/C=C/c2ccc(O)cc2)[C@@H]1O | 1.7 µM | – | –
COc1cc(/C=C/C(=O)OC[C@H]2O[C@@](CO)(O[C@H]3O[C@H](CO)[C@@H](O)[C@H](O)[C@H]3O)[C@@H](OC(=O)/C=C/c3ccc(O)c(OC)c3)[C@@H]2O)ccc1O [HELONIOSIDE A] | > 100 µM | – | –
COc1cc(/C=C/C(=O)OC[C@H]2O[C@]3(COC(C)(C)O[C@H]4[C@H](O[C@@H]5COC(C)(C)O[C@H]5[C@@H]4O)O3)[C@@H](OC(=O)/C=C/c3ccc(OC(C)=O)c(OC)c3)[C@@H]2OC(=O)/C=C/c2ccc(OC(C)=O)c(OC)c2)ccc1OC(C)=O | 0.16 µM | – | –
COc1cc(/C=C/C(=O)OC[C@H]2O[C@@](CO)(O[C@H]3O[C@H](CO)[C@@H](O)[C@H](O)[C@H]3O)[C@@H](OC(=O)/C=C/c3ccc(O)c(OC)c3)[C@@H]2OC(=O)/C=C/c2ccc(O)c(OC)c2)ccc1O | 22.4 µM | tde | 55.1 µM
COc1cc(/C=C/C(=O)OC[C@H]2O[C@H](O[C@]3(CO)O[C@H](COC(=O)/C=C/c4ccc(OC(C)=O)cc4)[C@@H](O)[C@@H]3OC(=O)/C=C/c3ccc(OC(C)=O)cc3)[C@H](O)[C@@H](O)[C@@H]2O)ccc1OC(C)=O | > 100 µM | – | –
COc1cc(/C=C/C(=O)OC[C@H]2O[C@@](CO)(O[C@H]3O[C@H](CO)[C@@H](O)[C@H](OC(=O)/C=C/c4ccc(O)c(OC)c4)[C@H]3O)[C@@H](OC(=O)/C=C/c3ccc(O)c(OC)c3)[C@@H]2OC(=O)/C=C/c2ccc(O)c(OC)c2)ccc1O | 1.62 µM | tde | 7.9 µM
CC[C@@]1(O)C(=O)OCc2c1cc1n(c2=O)Cc2cc3ccccc3nc2-1 [CAMPTOTHECIN] | 0.4 µM | – | –
COc1cc(/C=C/C(=O)OC[C@H]2O[C@@](CO)(O[C@H]3O[C@H](CO)[C@@H](O)[C@H](O)[C@H]3O)[C@@H](OC(=O)/C=C/c3ccc(OC(C)=O)c(OC)c3)[C@@H]2O)ccc1OC(C)=O | > 100 µM | – | –
CC(=O)Oc1ccc(/C=C/C(=O)OC[C@H]2O[C@@](CO)(O[C@H]3O[C@H](COC(=O)/C=C/c4ccc(OC(C)=O)cc4)[C@@H](O)[C@H](OC(=O)/C=C/c4ccc(OC(C)=O)cc4)[C@H]3O)[C@@H](OC(=O)/C=C/c3ccc(OC(C)=O)cc3)[C@@H]2O)cc1 | 1.86 µM | – | –
COc1cc(/C=C/C(=O)OC[C@H]2O[C@]3(COC(C)(C)O[C@H]4[C@H](O[C@@H]5COC(C)(C)O[C@H]5[C@@H]4O)O3)[C@@H](OC(=O)/C=C/c3ccc(O)c(OC)c3)[C@@H]2OC(=O)/C=C/c2ccc(O)c(OC)c2)ccc1O | 4.2 µM | – | –
COc1cc(/C=C/C(=O)OC[C@H]2O[C@]3(COC(C)(C)O[C@H]4[C@H](O[C@@H]5COC(C)(C)O[C@H]5[C@@H]4O)O3)[C@@H](OC(=O)/C=C/c3ccc(OC(C)=O)c(OC)c3)[C@@H]2O)ccc1OC(C)=O | 6.01 µM | tde | 27.9 µM
COc1cc(/C=C/C(=O)OC[C@H]2O[C@]3(COC(C)(C)O[C@H]4[C@H](O[C@@H]5COC(C)(C)O[C@H]5[C@@H]4OC(=O)/C=C/c4ccc(OC(C)=O)c(OC)c4)O3)[C@@H](OC(=O)/C=C/c3ccc(OC(C)=O)c(OC)c3)[C@@H]2OC(=O)/C=C/c2ccc(OC(C)=O)c(OC)c2)ccc1OC(C)=O | 3.22 µM | – | –
COc1cc(/C=C/C(=O)OC[C@H]2O[C@H](O[C@]3(CO)O[C@H](COC(=O)/C=C/c4ccc(O)cc4)[C@@H](O)[C@@H]3OC(=O)/C=C/c3ccc(O)cc3)[C@H](O)[C@@H](OC(=O)/C=C/c3ccc(O)cc3)[C@@H]2O)ccc1O | 3.12 µM | – | –

From ChEMBL document CHEMBL2150953, “Synthesis and antiproliferative activity of helonioside A, 3',4',6'-tri-O-feruloylsucrose, lapathoside C and their analogs” (Eur J Med Chem, 2012)
